According to BigSolDB 2.1:

Nc1cccc(N)n1
solubility (mole fraction) (in ethanol, 266.95 K): 0.0751
solubility (mole fraction) (in ethanol, 270.35 K): 0.0853
solubility (mole fraction) (in ethanol, 274.15 K): 0.0992
solubility (mole fraction) (in ethanol, 277.45 K): 0.108
solubility (mole fraction) (in ethanol, 281.15 K): 0.123
solubility (mole fraction) (in ethanol, 286.35 K): 0.148
solubility (mole fraction) (in ethanol, 290.15 K): 0.166
solubility (mole fraction) (in ethanol, 293.55 K): 0.182
solubility (mole fraction) (in ethanol, 297.15 K): 0.204
solubility (mole fraction) (in ethanol, 301.15 K): 0.226
solubility (mole fraction) (in ethanol, 304.55 K): 0.236
solubility (mole fraction) (in ethanol, 307.95 K): 0.266
solubility (mole fraction) (in ethanol, 312.05 K): 0.282
solubility (mole fraction) (in ethanol, 316.25 K): 0.319
solubility (mole fraction) (in ethanol, 321.25 K): 0.342
solubility (mole fraction) (in ethylbenzene, 273.25 K): 0.00022
solubility (mole fraction) (in ethylbenzene, 277.15 K): 0.00026
solubility (mole fraction) (in ethylbenzene, 282.25 K): 0.00033
solubility (mole fraction) (in ethylbenzene, 285.55 K): 0.00035
solubility (mole fraction) (in ethylbenzene, 289.45 K): 0.00046
solubility (mole fraction) (in ethylbenzene, 293.05 K): 0.00049
solubility (mole fraction) (in ethylbenzene, 298.65 K): 0.00066
solubility (mole fraction) (in ethylbenzene, 302.25 K): 0.00069
solubility (mole fraction) (in ethylbenzene, 305.35 K): 0.00086
solubility (mole fraction) (in ethylbenzene, 309.55 K): 0.0009
solubility (mole fraction) (in ethylbenzene, 313.15 K): 0.00113
solubility (mole fraction) (in ethylbenzene, 317.35 K): 0.0012
solubility (mole fraction) (in ethylbenzene, 321.25 K): 0.0015
solubility (mole fraction) (in ethylbenzene, 326.15 K): 0.00164
solubility (mole fraction) (in ethylbenzene, 329.45 K): 0.00197
solubility (mole fraction) (in ethylbenzene, 333.35 K): 0.00212
solubility (mole fraction) (in ethylbenzene, 336.95 K): 0.00252
solubility (mole fraction) (in ethylbenzene, 341.05 K): 0.00288
solubility (mole fraction) (in ethylbenzene, 346.25 K): 0.0033
solubility (mole fraction) (in ethylbenzene, 349.55 K): 0.00385
solubility (mole fraction) (in ethylbenzene, 353.05 K): 0.0043
solubility (mole fraction) (in ethylbenzene, 357.05 K): 0.00474
solubility (mole fraction) (in ethylbenzene, 361.15 K): 0.00577
solubility (mole fraction) (in isopropanol, 266.25 K): 0.0222
solubility (mole fraction) (in isopropanol, 269.95 K): 0.028
solubility (mole fraction) (in isopropanol, 274.15 K): 0.0302
solubility (mole fraction) (in isopropanol, 277.55 K): 0.0379
solubility (mole fraction) (in isopropanol, 281.15 K): 0.0401
solubility (mole fraction) (in isopropanol, 285.65 K): 0.0512
solubility (mole fraction) (in isopropanol, 290.15 K): 0.0565
solubility (mole fraction) (in isopropanol, 293.65 K): 0.068
solubility (mole fraction) (in isopropanol, 297.25 K): 0.0732
solubility (mole fraction) (in isopropanol, 301.15 K): 0.0887
solubility (mole fraction) (in isopropanol, 305.15 K): 0.0976
solubility (mole fraction) (in isopropanol, 308.25 K): 0.114
solubility (mole fraction) (in isopropanol, 311.15 K): 0.12
solubility (mole fraction) (in isopropanol, 315.85 K): 0.147
solubility (mole fraction) (in isopropanol, 319.25 K): 0.159
solubility (mole fraction) (in methanol, 266.15 K): 0.0598
solubility (mole fraction) (in methanol, 269.95 K): 0.066
solubility (mole fraction) (in methanol, 274.15 K): 0.0779
solubility (mole fraction) (in methanol, 278.05 K): 0.0888
solubility (mole fraction) (in methanol, 281.15 K): 0.0933
solubility (mole fraction) (in methanol, 285.95 K): 0.111
solubility (mole fraction) (in methanol, 290.15 K): 0.125
solubility (mole fraction) (in methanol, 297.15 K): 0.15
solubility (mole fraction) (in methanol, 301.15 K): 0.165
solubility (mole fraction) (in methanol, 304.55 K): 0.178
solubility (mole fraction) (in methanol, 307.95 K): 0.188
solubility (mole fraction) (in methanol, 311.15 K): 0.207
solubility (mole fraction) (in methanol, 317.85 K): 0.233
solubility (mole fraction) (in o-xylene, 273.35 K): 0.00128
solubility (mole fraction) (in o-xylene, 277.15 K): 0.0014
solubility (mole fraction) (in o-xylene, 282.25 K): 0.00185
solubility (mole fraction) (in o-xylene, 285.55 K): 0.00201
solubility (mole fraction) (in o-xylene, 289.45 K): 0.00252
solubility (mole fraction) (in o-xylene, 293.65 K): 0.00283
solubility (mole fraction) (in o-xylene, 297.55 K): 0.00351
solubility (mole fraction) (in o-xylene, 302.25 K): 0.00395
solubility (mole fraction) (in o-xylene, 305.35 K): 0.00469
solubility (mole fraction) (in o-xylene, 309.55 K): 0.00517
solubility (mole fraction) (in o-xylene, 314.15 K): 0.0064
solubility (mole fraction) (in o-xylene, 317.35 K): 0.00695
solubility (mole fraction) (in o-xylene, 321.25 K): 0.00838
solubility (mole fraction) (in o-xylene, 325.95 K): 0.00937
solubility (mole fraction) (in o-xylene, 329.45 K): 0.011
solubility (mole fraction) (in o-xylene, 333.35 K): 0.0121
solubility (mole fraction) (in o-xylene, 336.95 K): 0.0144
solubility (mole fraction) (in o-xylene, 341.15 K): 0.0153
solubility (mole fraction) (in o-xylene, 346.25 K): 0.0194
solubility (mole fraction) (in o-xylene, 349.55 K): 0.0226
solubility (mole fraction) (in o-xylene, 353.45 K): 0.024
solubility (mole fraction) (in o-xylene, 357.05 K): 0.0292
solubility (mole fraction) (in o-xylene, 361.05 K): 0.034
solubility (mole fraction) (in o-xylene, 361.25 K): 0.0367
solubility (mole fraction) (in toluene, 273.25 K): 0.00149
solubility (mole fraction) (in toluene, 277.15 K): 0.00191
solubility (mole fraction) (in toluene, 281.25 K): 0.00214
solubility (mole fraction) (in toluene, 285.55 K): 0.0027
solubility (mole fraction) (in toluene, 289.45 K): 0.00304
solubility (mole fraction) (in toluene, 293.65 K): 0.00375
solubility (mole fraction) (in toluene, 297.55 K): 0.00417
solubility (mole fraction) (in toluene, 301.45 K): 0.0051
solubility (mole fraction) (in toluene, 305.35 K): 0.00558
solubility (mole fraction) (in toluene, 309.55 K): 0.00704
solubility (mole fraction) (in toluene, 313.45 K): 0.00733
solubility (mole fraction) (in toluene, 317.35 K): 0.00919
solubility (mole fraction) (in toluene, 321.25 K): 0.00942
solubility (mole fraction) (in toluene, 325.55 K): 0.0124
solubility (mole fraction) (in toluene, 329.45 K): 0.0127
solubility (mole fraction) (in toluene, 333.35 K): 0.0162
solubility (mole fraction) (in toluene, 337.25 K): 0.0164
solubility (mole fraction) (in toluene, 341.15 K): 0.0207
solubility (mole fraction) (in toluene, 345.65 K): 0.022
solubility (mole fraction) (in toluene, 349.55 K): 0.0277
solubility (mole fraction) (in toluene, 353.45 K): 0.0283
solubility (mole fraction) (in toluene, 357.35 K): 0.0355
